Entries after “also recorded” stand apart in the source; their conditions may differ.
What was measured:
[1] = test system: platelet activating factor (PAF); experiment: PAF Induced Mortality; assay type: in vivo, mouse (Charles River CD-1, female)
Method: The induction of mortality by the injection of low doses of PAF into mice has been described as a method for assessing the effectiveness of agents to antagonize the anaphylactic properties of PAF by J. M. Young, P. J. Maloney, S. W. Jubb and J. S. Clarke, in Prostaglandins, 30:545-551 (1985). Charles River CD-1 female mice (25-30 g) were given intraperitoneal injections of PAF (10 μg) dissolved in 100 μl of 5% ethanol-saline. […] Test drugs were orally administered in 50 μl of peanut oil one hour prior to PAF injection. Control mice were dosed with vehicle only. Mortality was assessed by counting survivors at one hour, two hours, and twenty four hours after the PAF injection.

arachidonic acid = experiment: The Mouse Ear Edema Test (arachidonic acid-induced skin edema); assay type: in vivo, mouse (Charles River CD-1, female); settings: for % Inhibition of Edema: 1 hour before arachidonic acid (0.5 mg)
From the text: The direct application of arachidonic acid to skin, such as the mouse ear, produces an edematous response which is believed to be mediated by eicosanoids resulting from the actions of both cyclooxygenase and lipoxygenase systems. J. M. Young, D. A. Spires, C. J. Bedford, B. Wagner, S. J. Ballaron and L. M. DeYoung, J. Invest. Dermatol. 82:367-371 (1984); E. E. Opas, R. J. Bonney, and J. L. Hanes J. Invest. Dermatol. 84:253-256 (1985). PAF has been reported to cause the release of arachidonic acid, and as a result, gives rise to increased levels of eicosanoids in the exposed tissues. F. H. Chilton, J. T. Flaherty, C. E. Walsh, M. J. Thomas, R. L. Wykle, L. R. DeChatelet and B. M. Waite, J. Biol. Chem., 257:5402-5407 (1982). Thus, the mouse ear edema test can be used to discover substances which antagonize the effects of PAF.
The test drugs were dissolved in 10 μl ethanol and applied to the inner surface of the left ears of Charles River CD-1 female mice. Control values were obtained by applying 10 μl of ethanol to the right ear so that each mouse served as its own control. One hour later, arachidonic acid (0.5 mg/ear in 10 μl ethanol) was applied to both ears and allowed to act on the skin for one hour. The mice were then killed by cervical dislocation and the ears removed so that all tissue samples were of equivalent areas. The extent of edema in each sample was measured by weighing on an analytical balance.

[2] = test system: 5-HETE synthesis in mouse peritoneal macrophages; experiment: Inhibition of 5-HETE Synthesis in mouse peritoneal macrophages; assay type: cell-based, mouse (CD-1, female); settings: for 5-HETE (%) (percentage of total recovered radioactivity): vehicle 2.9 ± 0.16
Method: It has been proposed that products of lipoxygenase action such as leukotriene […] (LTB4) and 5-hydroxyeicosatetraenoic acid (5-HETE) can act synergistically with PAF to cause neutrophil degranulation which may contribute to the development of inflammation. J. T. O'Flaherty, J. Cell Biology, 122:229-239 (1985). Formula I was tested as an inhibitor of 5-HETE production in mouse peritoneal macrophages using the following procedure.
Peritoneal cells were collected from female CD-1 mice (20-25 g) following sacrifice by cervical dislocation. The cells from each group of mice were pooled, centrifuged and suspended in MEM. Aliquotes containing 4.5×10^6 cells in 3.0 ml MEM were placed in culture dishes and incubated for 18 hours at 37° C. By this procedure, a relatively homogenous monolayer of macrophages was obtained. Eicosanoid synthesis was brought about by the addition of ^14 C-arachidonic acid (2×10^5 dpm; 0.22 μM) followed by a calcium ionophore, A23187 (0.03 μM). After 15 minutes, the reaction was stopped by the addition of citric acid to pH4 and the products were extracted with ethyl acetate. Silica gel thin layer chromatography (hexane; ether; acetic acid; 50:50:1) was used to separate the 5-HETE which was identified by comparison with authentic material. Carbon-14 content was measured by liquid scintillation counting of the HETE containing zone. The significance of drug induced changes was calculated using the Student's test when compared with vehicle treated (ethanol, 30 μl) cells.

gastric mucosa = test system: gastric mucosa
Method: Robert and Szabo, In: Selye's Guide to Stress Research, (Vol. 2, A. Selye, Ed.) New York; Van Nostrand Reinhold Co., pp. 22-46 (1983); and Robert et al., Gastroenterology, 77:433-443 (1979). Experimental groups of 5-11 rats (Charles River CD) were fasted for 24 hours before the administration of either aspirin, Formula I or indomethacin by a rubber stomach tube (Rusch No. 8). The animals were killed 1 hour later by carbon dioxide asphyxiation. At that time, 4 ml of 10% aqueous buffered formaldehyde (formalin) was injected directly into the stomach of each animal. […] After 5 minutes of in situ fixation, the stomach and proximal duodenum were removed, opened along the greater curvature, pinned on a cork with mucosa upward, and immersed in 10% formaldehyde until further processing. Szabo, S. et al., J. Pharmacol. Meth., 13:59-66 (1985). The gastric lesions were then evaluated by direct visual inspection.
For comparative purposes, a semiquantitative scale of 0-3 was used to assess the extent of gastric mucosal lesions. Szabo et al., Science, 214:200-202 (1981); and Szabo et al., Gastroenterology, 85:1384-1390 (1983). According to this scale, a score of 0 indicates a normal mucosa; 1 represents the appearance of between 1 and 4 small petechiae; 2 indicates the presence of 5 or more petechiae or hemmorhagic streaks up to 4 mm in length; 3 represents the appearance of erosions longer than 5 mm or confluent hemmorrhages.

[3] = 20 mg/kg oral, 1 hr after PAF (10 μg i.p.)
[4] = 20 mg/kg oral, 2 hrs after PAF (10 μg i.p.)
[5] = 20 mg/kg oral, 24 hrs after PAF (10 μg i.p.)
[6] = 40 mg/kg oral, 1 hr after PAF (10 μg i.p.)
[7] = 40 mg/kg oral, 2 hrs after PAF (10 μg i.p.)
[8] = 40 mg/kg oral, 24 hrs after PAF (10 μg i.p.)
[9] = 80 mg/kg oral, 1 hr after PAF (10 μg i.p.)
[10] = 80 mg/kg oral, 2 hrs after PAF (10 μg i.p.)
[11] = 80 mg/kg oral, 24 hrs after PAF (10 μg i.p.)

## CCCCCc1cc(O)c2c(c1)OC(C)(C)C1CC=C(C(=O)O)CC21 (stereo not shown) [Formula I, 6a,7,10,10a-tetrahydro-6,6-dimethyl-9-carboxyl-3-pentyl-6H-dibenzo[b,d]pyran-1-ol]
[1]; [3]
  Survivors (%): 25%
  Survivors/N: 5/20
[1]; [4]
  Survivors (%): 25%
  Survivors/N: 5/20
[1]; [5]
  Survivors (%): 25%
  Survivors/N: 5/20
[1]; [6]
  Survivors (%): 80%
  Survivors/N: 12/15
[1]; [7]
  Survivors (%): 80%
  Survivors/N: 12/15
[1]; [8]
  Survivors (%): 80%
  Survivors/N: 12/15
[1]; 40 mg/kg oral, all time points (1, 2, 24 hours)
  survival rate: 80%
[1]; [9]
  Survivors (%): 70%
  Survivors/N: 7/10
[1]; [10]
  Survivors (%): 70%
  Survivors/N: 7/10
[1]; [11]
  Survivors (%): 70%
  Survivors/N: 7/10
[1]; oral, mouse
  antagonism of anaphylactic effects of PAF (in words): potent antagonist to the anaphylactic effects of PAF
Arachidonic acid; 0.13 mg/ear topical
  % Inhibition of Edema: 0.6%
Arachidonic acid; 0.25 mg/ear topical
  % Inhibition of Edema: 18.3%
Arachidonic acid; 0.50 mg/ear topical
  % Inhibition of Edema: 19.1%
Arachidonic acid; 1.0 mg/ear topical
  % Inhibition of Edema: 19.3%
Arachidonic acid; topical, mouse ear
  reduction of arachidonic acid-induced skin edema (in words): effective in reducing arachidonic acid-induced skin edema
  relative activity versus naproxen: more active than the widely used antiinflammatory drug naproxen
  relative potency versus indomethacin and phenidone: approximately one half the potency of agents such as indomethacin and phenidone
[2]; 0.32 μM
  5-HETE (%) (percentage of total recovered radioactivity): 3.08 ± 0.36%
[2]; 1.6 μM
  5-HETE (%) (percentage of total recovered radioactivity): 3.03 ± 0.42%
[2]; 3.2 μM
  5-HETE (%) (percentage of total recovered radioactivity): 1.58 ± 0.41%
[2]; 4 μM
  5-HETE (%) (percentage of total recovered radioactivity): 1.68 ± 0.15%
[2]; 8 μM
  5-HETE (%) (percentage of total recovered radioactivity): 1.48 ± 0.87%
[2]; 16 μM
  5-HETE (%) (percentage of total recovered radioactivity): 3.10 ± 0.10%
[2]; Mus musculus, Peritoneal macrophage, 3.2 μM
  inhibition at 3.2 µM: 46%
[2]; Mus musculus, Peritoneal macrophage, 4 μM
  inhibition at 4 µM: 42%
[2]; Mus musculus, Peritoneal macrophage, 8 μM
  inhibition at 8 µM: 49%
[2]; dose range of 3.2 to 8 μM
  reduction of 5-HETE synthesis (in words): reduces 5-HETE synthesis to one half of the control level
Gastric mucosa; 80 mg/kg by stomach tube, 1 hour
  Incidence (rats with lesions/total tested): 0/10
Gastric mucosa; 80 mg/kg by stomach tube, 1 hour, scale 0-3 (0 = normal mucosa)
  Mean Score: 0.0
Gastric mucosa; directly into the stomach, Formula I at twice its therapeutic dose in the mouse (40 mg/kg), 40 mg/kg
  ulcer / gastric lesion formation (in words): did not induce ulcer formation; also recorded: does not induce the formation of gastric lesions

— patent US4973603A, “Platelet activating factor antagonist and methods of use therefor” (priority 1989, dated 1990)
